Experimental data as given in patent publication US20230085307A1, “PYRIDAZINONE COMPOUND AND HERBICIDE” (NISSAN CHEMICAL CORPORATION, priority 2019, published 2023).

Columns and labels:
[1] = system: late watergrass; test: Test Example 1: herbicidal activity, application before weed generation under submerged conditions (Table 16, symbol A); format: in vivo, late watergrass (Echinochloa oryzicola); conditions: amount of applied herbicide 320 g/ha
Procedure, shortened: (§1)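 Emulsion formulation, water-diluted to set dose, was put onto the flooded surface (4 cm depth, alluvial soil) the same day weeds were sown and 2.5-leaf rice transplanted. After 3 weeks at 25-30 °C under glass, each species was rated 0 (≤5% kill) to 5 (≥90% kill).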

[2] = system: Japanese bulrush; test: Test Example 1: herbicidal activity, application before weed generation under submerged conditions (Table 16, symbol B); format: in vivo, Japanese bulrush (Schoenoplectus juncoides); conditions: amount of applied herbicide 320 g/ha
Procedure, shortened: as §1

[3] = system: oval-leafed pondweed; test: Test Example 1: herbicidal activity, application before weed generation under submerged conditions (Table 16, symbol C); format: in vivo, oval-leafed pondweed (Monochoria vaginalis); conditions: amount of applied herbicide 320 g/ha
Procedure, shortened: as §1

[4] = system: barnyard grass; test: Test Example 3: herbicidal effect by foliage application, Wagner pot (Table 18, symbol H); format: in vivo, barnyard grass (Echinochloa crus-galli); conditions: 320 g/ha
Procedure, shortened: (§2)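 Plants were sown in alluvial soil held under 0.1–0.5 cm standing water and grown 14 days in a greenhouse at 25–30 °C. An emulsifiable formulation, water-diluted to the set dose, was then sprayed onto the foliage, and effects were scored three weeks later using previously defined criteria.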

[5] = system: Chinese sprangletop; test: Test Example 3: herbicidal effect by foliage application, Wagner pot (Table 18, symbol D); format: in vivo, chinese sprangletop (Leptochloa chinensis); conditions: 320 g/ha
Procedure, shortened: as §2

[6] = system: rice flat sedge; test: Test Example 3: herbicidal effect by foliage application, Wagner pot (Table 18, symbol E); format: in vivo, rice flat sedge (Cyperus iria); conditions: 320 g/ha
Procedure, shortened: as §2

[7] = system: southern crabgrass; test: Test Example 4: herbicidal effect by soil treatment (Table 19, symbol F); format: in vivo, southern crabgrass (Digitaria ciliaris); conditions: amount of applied herbicide 320 g/ha
Procedure, shortened: (§3)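 Step 1: sow seeds in sterilized diluvial soil, cover ~1.5 cm. Step 2: spray diluted emulsion onto soil surface at predetermined rate. Step 3: greenhouse, 25–30° C, three weeks. Step 4: grade effect on each plant by earlier criteria.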

[8] = system: green foxtail; test: Test Example 4: herbicidal effect by soil treatment (Table 19, symbol G); format: in vivo, green foxtail (Setaria viridis); conditions: amount of applied herbicide 320 g/ha
Procedure, shortened: as §3

[9] = system: barnyard grass; test: Test Example 4: herbicidal effect by soil treatment (Table 19, symbol H); format: in vivo, barnyard grass (Echinochloa crus-galli); conditions: amount of applied herbicide 320 g/ha
Procedure, shortened: as §3

[10] = system: wild oat; test: Test Example 4: herbicidal effect by soil treatment (Table 19, symbol I); format: in vivo, wild oat (Avena fatua); conditions: amount of applied herbicide 320 g/ha
Procedure, shortened: as §3

[11] = system: blackgrass; test: Test Example 4: herbicidal effect by soil treatment (Table 19, symbol J); format: in vivo, blackgrass (Alopecurus myosuroides); conditions: amount of applied herbicide 320 g/ha
Procedure, shortened: as §3

[12] = system: Italian ryegrass; test: Test Example 4: herbicidal effect by soil treatment (Table 19, symbol K); format: in vivo, Italian ryegrass (Lolium multiflorum); conditions: amount of applied herbicide 320 g/ha
Procedure, shortened: as §3

[13] = system: windgrass; test: Test Example 4: herbicidal effect by soil treatment (Table 19, symbol L); format: in vivo, windgrass (Apera spica-venti); conditions: amount of applied herbicide 320 g/ha
Procedure, shortened: as §3

[14] = system: velvetleaf; test: Test Example 4: herbicidal effect by soil treatment (Table 19, symbol M); format: in vivo, velvetleaf (Abutilon theophrasti); conditions: amount of applied herbicide 320 g/ha
Procedure, shortened: as §3

[15] = system: redroot pigweed; test: Test Example 4: herbicidal effect by soil treatment (Table 19, symbol N); format: in vivo, redroot pigweed (Amaranthus retroflexus); conditions: amount of applied herbicide 320 g/ha
Procedure, shortened: as §3

[16] = system: chickweed; test: Test Example 4: herbicidal effect by soil treatment (Table 19, symbol P); format: in vivo, common chickweed (Stellaria media); conditions: amount of applied herbicide 320 g/ha
Procedure, shortened: as §3

[17] = system: false cleavers; test: Test Example 4: herbicidal effect by soil treatment (Table 19, symbol Q); format: in vivo, false cleavers (Galium spurium); conditions: amount of applied herbicide 320 g/ha
Procedure, shortened: as §3

[18] = system: persian speedwell; test: Test Example 4: herbicidal effect by soil treatment (Table 19, symbol R); format: in vivo, Persian speedwell (Veronica persica); conditions: amount of applied herbicide 320 g/ha
Procedure, shortened: as §3

[19] = system: southern crabgrass; test: Test Example 5: herbicidal effect by foliage application, plastic box (Table 20, symbol F); format: in vivo, southern crabgrass (Digitaria ciliaris); conditions: foliage application, 320 g/ha, three weeks after application
Procedure, shortened: (§4)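 Foliar spray test: emulsion formulation diluted in water to a set application rate, sprayed onto 14-day-old plants raised in diluvial soil at 25° C to 30° C under glass. Both herbicidal effect and crop effect rated visually three weeks later.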

[20] = system: green foxtail; test: Test Example 5: herbicidal effect by foliage application, plastic box (Table 20, symbol G); format: in vivo, green foxtail (Setaria viridis); conditions: foliage application, 320 g/ha, three weeks after application
Procedure, shortened: as §4

[21] = system: barnyard grass; test: Test Example 5: herbicidal effect by foliage application, plastic box (Table 20, symbol H); format: in vivo, barnyard grass (Echinochloa crus-galli); conditions: foliage application, 320 g/ha, three weeks after application
Procedure, shortened: as §4

[22] = system: wild oat; test: Test Example 5: herbicidal effect by foliage application, plastic box (Table 20, symbol I); format: in vivo, wild oat (Avena fatua); conditions: foliage application, 320 g/ha, three weeks after application
Procedure, shortened: as §4

[23] = system: blackgrass; test: Test Example 5: herbicidal effect by foliage application, plastic box (Table 20, symbol J); format: in vivo, blackgrass (Alopecurus myosuroides); conditions: foliage application, 320 g/ha, three weeks after application
Procedure, shortened: as §4

[24] = system: Italian ryegrass; test: Test Example 5: herbicidal effect by foliage application, plastic box (Table 20, symbol K); format: in vivo, Italian ryegrass (Lolium multiflorum); conditions: foliage application, 320 g/ha, three weeks after application
Procedure, shortened: as §4

[25] = system: windgrass; test: Test Example 5: herbicidal effect by foliage application, plastic box (Table 20, symbol L); format: in vivo, windgrass (Apera spica-venti); conditions: foliage application, 320 g/ha, three weeks after application
Procedure, shortened: as §4

[26] = system: velvetleaf; test: Test Example 5: herbicidal effect by foliage application, plastic box (Table 20, symbol M); format: in vivo, velvetleaf (Abutilon theophrasti); conditions: foliage application, 320 g/ha, three weeks after application
Procedure, shortened: as §4

[27] = system: redroot pigweed; test: Test Example 5: herbicidal effect by foliage application, plastic box (Table 20, symbol N); format: in vivo, redroot pigweed (Amaranthus retroflexus); conditions: foliage application, 320 g/ha, three weeks after application
Procedure, shortened: as §4

[28] = system: lambsquarters; test: Test Example 5: herbicidal effect by foliage application, plastic box (Table 20, symbol O); format: in vivo, lambsquarters (Chenopodium album); conditions: foliage application, 320 g/ha, three weeks after application
Procedure, shortened: as §4

[29] = system: chickweed; test: Test Example 5: herbicidal effect by foliage application, plastic box (Table 20, symbol P); format: in vivo, common chickweed (Stellaria media); conditions: foliage application, 320 g/ha, three weeks after application
Procedure, shortened: as §4

[30] = system: false cleavers; test: Test Example 5: herbicidal effect by foliage application, plastic box (Table 20, symbol Q); format: in vivo, false cleavers (Galium spurium); conditions: foliage application, 320 g/ha, three weeks after application
Procedure, shortened: as §4

[31] = system: persian speedwell; test: Test Example 5: herbicidal effect by foliage application, plastic box (Table 20, symbol R); format: in vivo, Persian speedwell (Veronica persica); conditions: foliage application, 320 g/ha, three weeks after application
Procedure, shortened: as §4

SMILES: CCCC(=O)Oc1c(C)nn(C)c(=O)c1-c1c(-c2ccc3c(c2)OCCO3)sc2cc(C)ccc12 [3-060]
- Herbicidal effect, A: late watergrass [1]: 1 (Herbicidal rate of 5% or more and less than 20%)
- Herbicidal effect, B: Japanese bulrush [2]: 2 (Herbicidal rate of 20% or more and less than 40%)
- Herbicidal effect, C: oval-leafed pondweed [3]: 0 (Herbicidal rate of 5% or less (almost no effect))
- herbicidal effect on barnyard grass (H) [4]: 3 (Herbicidal rate of 40% or more and less than 70%)
- herbicidal effect on Chinese sprangletop (D) [5]: 4 (Herbicidal rate of 70% or more and less than 90%)
- herbicidal effect on rice flat sedge (E) [6]: 3 (Herbicidal rate of 40% or more and less than 70%)
- F: southern crabgrass, herbicidal effect grade [7]: 0 (Herbicidal rate of 5% or less (almost no effect))
- G: green foxtail, herbicidal effect grade [8]: 0 (Herbicidal rate of 5% or less (almost no effect))
- H: barnyard grass, herbicidal effect grade [9]: 0 (Herbicidal rate of 5% or less (almost no effect))
- I: wild oat, herbicidal effect grade [10]: 0 (Herbicidal rate of 5% or less (almost no effect))
- J: blackgrass, herbicidal effect grade [11]: 0 (Herbicidal rate of 5% or less (almost no effect))
- K: Italian ryegrass, herbicidal effect grade [12]: 0 (Herbicidal rate of 5% or less (almost no effect))
- L: windgrass, herbicidal effect grade [13]: 0 (Herbicidal rate of 5% or less (almost no effect))
- M: velvetleaf, herbicidal effect grade [14]: 0 (Herbicidal rate of 5% or less (almost no effect))
- N: redroot pigweed, herbicidal effect grade [15]: 0 (Herbicidal rate of 5% or less (almost no effect))
- P: chickweed, herbicidal effect grade [16]: 0 (Herbicidal rate of 5% or less (almost no effect))
- Q: false cleavers, herbicidal effect grade [17]: 0 (Herbicidal rate of 5% or less (almost no effect))
- R: persian speedwell, herbicidal effect grade [18]: 3 (Herbicidal rate of 40% or more and less than 70%)
- F: southern crabgrass, herbicidal effect grade [19]: 0 (Herbicidal rate of 5% or less (almost no effect))
- G: green foxtail, herbicidal effect grade [20]: 0 (Herbicidal rate of 5% or less (almost no effect))
- H: barnyard grass, herbicidal effect grade [21]: 0 (Herbicidal rate of 5% or less (almost no effect))
- I: wild oat, herbicidal effect grade [22]: 0 (Herbicidal rate of 5% or less (almost no effect))
- J: blackgrass, herbicidal effect grade [23]: 3 (Herbicidal rate of 40% or more and less than 70%)
- K: Italian ryegrass, herbicidal effect grade [24]: 0 (Herbicidal rate of 5% or less (almost no effect))
- L: windgrass, herbicidal effect grade [25]: 3 (Herbicidal rate of 40% or more and less than 70%)
- M: velvetleaf, herbicidal effect grade [26]: 0 (Herbicidal rate of 5% or less (almost no effect))
- N: redroot pigweed, herbicidal effect grade [27]: 0 (Herbicidal rate of 5% or less (almost no effect))
- O: lambsquarters, herbicidal effect grade [28]: 0 (Herbicidal rate of 5% or less (almost no effect))
- P: chickweed, herbicidal effect grade [29]: 5 (Herbicidal rate of 90% or more (almost completely withered))
- Q: false cleavers, herbicidal effect grade [30]: 0 (Herbicidal rate of 5% or less (almost no effect))
- R: persian speedwell, herbicidal effect grade [31]: 5 (Herbicidal rate of 90% or more (almost completely withered))
